Target: phosphorylated active hERK2 enzyme (Homo sapiens (Human), UniProt P28482)
Details: not given

Chain of phosphorylated active hERK2 enzyme (P28482 whole entry): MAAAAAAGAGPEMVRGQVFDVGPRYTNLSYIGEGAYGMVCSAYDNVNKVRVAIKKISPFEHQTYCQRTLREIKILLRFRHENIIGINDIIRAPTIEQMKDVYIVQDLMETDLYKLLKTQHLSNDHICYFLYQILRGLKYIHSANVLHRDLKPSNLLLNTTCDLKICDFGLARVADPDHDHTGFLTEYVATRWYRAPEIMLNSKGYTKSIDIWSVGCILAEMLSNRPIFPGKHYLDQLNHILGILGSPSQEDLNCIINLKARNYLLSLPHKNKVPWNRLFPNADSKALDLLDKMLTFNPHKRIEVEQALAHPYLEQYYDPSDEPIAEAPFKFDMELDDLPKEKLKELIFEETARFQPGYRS

Row | SMILES | IC50
1 | Cc1cc(-n2ncc3cc(NC(=O)N[C@@H](c4ccccc4)C(C)(C)O)nc(CO)c32)ccn1 [Example 254, 1-[7-(hydroxymethyl)-1-(2-methylpyridin-4-yl)-1H-pyrazolo[3,4-c]pyridin-5-yl]-3-[(1S)-2-hydroxy-2-methyl-1-phenylpropyl]urea] | 4.29 nM

Same assay, conditions: read-out: ERK2 IC50; IMAP-FP assay; 0.5 nM hERK2, 30 μM ATP; 10 point titration, 3 μM starting concentration

Row | SMILES | IC50
2 | C[C@@H](NC(=O)Nc1cc2cnn(-c3ccc(F)cc3)c2c(COCCO)n1)c1ccccc1 [Example 246, 1-{1-(4-fluorophenyl)-7-[(2-hydroxyethoxy)methyl]-1H-pyrazolo[3,4-c]pyridin-5-yl}-3-[(1R)-1-phenylethyl]urea] | 52.2 nM
3 | COCc1nc(NC(=O)N[C@H](C)c2ccccc2)cc2cnn(-c3ccnc(C)c3)c12 [Example 247, 1-[7-(methoxymethyl)-1-(2-methylpyridin-4-yl)-1H-pyrazolo[3,4-c]pyridin-5-yl]-3-[(1R)-1-phenylethyl]urea] | 11.1 nM
4 | COCCOCc1nc(NC(=O)N[C@H](C)c2ccccc2)cc2cnn(-c3ccnc(C)c3)c12 [Example 248, 1-{7-[(2-methoxyethoxy)methyl]-1-(2-methylpyridin-4-yl)-1H-pyrazolo[3,4-c]pyridin-5-yl}-3-[(1R)-1-phenylethyl]urea] | 11.4 nM
5 | Cc1cc(-n2ncc3cc(NC(=O)N[C@H](C)c4ccccc4)nc(COCCN4CCOCC4)c32)ccn1 [Example 249, 1-{1-(2-methylpyridin-4-yl)-7-[(2-morpholin-4-ylethoxy)methyl]-1H-pyrazolo[3,4-c]pyridin-5-yl}-3-[(1R)-1-phenylethyl]urea] | 127 nM
6 | Cc1cc(-n2ncc3cc(NC(=O)N[C@H](C)c4ccccc4)nc(COC4COC4)c32)ccn1 [Example 250, 1-{1-(2-methylpyridin-4-yl)-7-[(oxetan-3-yloxy)methyl]-1H-pyrazolo[3,4-c]pyridin-5-yl}-3-[(1R)-1-phenylethyl]urea] | 25 nM
7 | Cc1cc(-n2ncc3cc(NC(=O)N[C@H](C)c4ccccc4)nc(C)c32)ccn1 [Example 251, 1-[7-methyl-1-(2-methylpyridin-4-yl)-1H-pyrazolo[3,4-c]pyridin-5-yl]-3-[(1R)-1-phenylethyl]urea] | 2.81 nM
8 | Cc1cc(-n2ncc3cc(NC(=O)N[C@H](C)c4ccccc4)nc(COCCOCc4ccccc4)c32)ccn1 [Example 252, 1-[7-{[2-(benzyloxy)ethoxy]methyl}-1-(2-methylpyridin-4-yl)-1H-pyrazolo[3,4-c]pyridin-5-yl]-3-[(1R)-1-phenylethyl]urea] | 25.3 nM
9 | Cc1cc(-n2ncc3cc(NC(=O)N[C@H](C)c4ccccc4)nc(COCCO)c32)ccn1 [Example 253, 1-{7-[(2-hydroxyethoxy)methyl]-1-(2-methylpyridin-4-yl)-1H-pyrazolo[3,4-c]pyridin-5-yl}-3-[(1R)-1-phenylethyl]urea] | 23.4 nM
10 | C[C@@H](NC(=O)Nc1cc2cnn(C(C)(C)C)c2c(CO)n1)c1ccccc1 [Example 255, 1-[1-tert-butyl-7-(hydroxymethyl)-1H-pyrazolo[3,4-c]pyridin-5-yl]-3-[(1R)-1-phenylethyl]urea] | 1260 nM
11 | CCn1ncc2cc(NC(=O)N[C@H](C)c3ccccc3)nc(OC)c21 [Example 256, 1-(1-ethyl-7-methoxy-1H-pyrazolo[3,4-c]pyridin-5-yl)-3-[(1R)-1-phenylethyl]urea] | 100 nM
12 | CCn1ncc2cc(NC(=O)N[C@@H](c3ccccc3)C(C)(C)O)nc(OC)c21 [Example 257, 1-(1-ethyl-7-methoxy-1H-pyrazolo[3,4-c]pyridin-5-yl)-3-[(1S)-2-hydroxy-2-methyl-1-phenylpropyl]urea] | 44.9 nM
13 | CCn1ncc2cc(NC(=O)N[C@H](C)c3ccccc3)nc(OCCO)c21 [Example 258, 1-[1-ethyl-7-(2-hydroxyethoxy)-1H-pyrazolo[3,4-c]pyridin-5-yl]-3-[(1R)-1-phenylethyl]urea] | 35.3 nM
14 | COC[C@@H](NC(=O)Nc1cc2cnn(C3CCOCC3)c2cn1)c1ccccc1 [Example 259, (S)-1-(2-methoxy-1-phenylethyl)-3-(1-(tetrahydro-2H-pyran-4-yl)-1H-pyrazolo[3,4-c]pyridin-5-yl)urea] | 196 nM
15 | COC[C@@H](NC(=O)Nc1cc2cnn(Cc3ccncc3)c2cn1)c1ccccc1 [Example 260, 1-[(1S)-2-methoxy-1-phenylethyl]-3-[1-(pyridin-4-ylmethyl)-1H-pyrazolo[3,4-c]pyridin-5-yl]urea] | 30.9 nM
16 | O=C(Nc1cc2cnn(Cc3ccncc3)c2cn1)N[C@H](CO)c1ccccc1 [Example 261, 1-[(1S)-2-hydroxy-1-phenylethyl]-3-[1-(pyridin-4-ylmethyl)-1H-pyrazolo[3,4-c]pyridin-5-yl]urea] | 2430 nM
17 | CO[C@@H]1CN(Cc2cccnc2)C[C@H]1NC(=O)Nc1cc2cnn(-c3ccnc(C)c3)c2cn1 [Example 262, 1-((3R,4R)-4-methoxy-1-(pyridin-3-ylmethyl)pyrrolidin-3-yl)-3-(1-(2-methylpyridin-4-yl)-1H-pyrazolo[3,4-c]pyridin-5-yl)urea] | 253 nM
18 | Cc1cc(-n2ncc3cc(NC(=O)NCC4CNC4)ncc32)ccn1 [Example 263, 1-(azetidin-3-ylmethyl)-3-(1-(2-methylpyridin-4-yl)-1H-pyrazolo[3,4-c]pyridin-5-yl)urea] | 102 nM
19 | Cc1cc(-n2ncc3cc(NC(=O)NCC4CN(C)C4)ncc32)ccn1 [Example 264, 1-((1-methylazetidin-3-yl)methyl)-3-(1-(2-methylpyridin-4-yl)-1H-pyrazolo[3,4-c]pyridin-5-yl)urea] | 70 nM
20 | Cc1cc(-n2ncc3cc(NC(=O)NC4CCCN(Cc5cccnc5)C4)ncc32)ccn1 (centres unmarked) [Example 265] | 115 nM
21 | Cc1cc(-n2ncc3cc(NC(=O)NC4CCCN(Cc5c(F)cccc5F)C4)ncc32)ccn1 (centres unmarked) [Example 266, 1-[1-(2,6-difluorobenzyl)piperidin-3-yl]-3-[1-(2-methylpyridin-4-yl)-1H-pyrazolo[3,4-c]pyridin-5-yl]urea] | 2.78 nM
22 | Cc1cc(-n2ncc3cc(NC(=O)NC4CCCN(Cc5nccs5)C4)ncc32)ccn1 (centres unmarked) [Example 267, 1-[1-(2-methylpyridin-4-yl)-1H-pyrazolo[3,4-c]pyridin-5-yl]-3-[1-(1,3-thiazol-2-ylmethyl)piperidin-3-yl]urea] | 22.2 nM
23 | Cc1cc(-n2ncc3cc(NC(=O)NC4CCCN(Cc5cccnc5Cl)C4)ncc32)ccn1 (centres unmarked) [Example 268, 1-{1-[(2-chloropyridin-3-yl)methyl]piperidin-3-yl}-3-[1-(2-methylpyridin-4-yl)-1H-pyrazolo[3,4-c]pyridin-5-yl]urea] | 18.6 nM
24 | CO[C@H]1CN(Cc2c(F)cccc2F)C[C@@H]1NC(=O)Nc1cc2cnn(-c3ccnc(C)c3)c2cn1 [Example 269, 1-[(3S,4S)-1-(2,6-difluorobenzyl)-4-methoxypyrrolidin-3-yl]-3-[1-(2-methylpyridin-4-yl)-1H-pyrazolo[3,4-c]pyridin-5-yl]urea] | 5.39 nM
25 | Cc1cc(-n2ncc3cc(NC(=O)NC4CCN(Cc5cccnc5)C4)ncc32)ccn1 (centres unmarked) [Example 270, 1-[1-(2-methylpyridin-4-yl)-1H-pyrazolo[3,4-c]pyridin-5-yl]-3-[1-(pyridin-3-ylmethyl)-pyrrolidin-3-yl]urea] | 45.3 nM
26 | Cc1cc(-n2ncc3cc(NC(=O)NC4CCN(Cc5c(F)cccc5F)C4)ncc32)ccn1 (centres unmarked) [Example 271, 1-[1-(2,6-difluorobenzyl)pyrrolidin-3-yl]-3-[1-(2-methylpyridin-4-yl)-1H-pyrazolo[3,4-c]pyridin-5-yl]urea] | 0.997 nM
